Data as given in BindingDB's records for doi:10.1074/jbc.M113.496463 (National Institutes of Health, National Institutes of …, 2013).
Several values for one entry are separate records, joined by “and”; a condition that tells them apart may be missing. Equal entries are not always repeated.

Assays:
[1] = molecular target: T1, ATP-dependent DNA helicase DinG (Escherichia coli (strain K12), UniProt P27296); assay: Helicase Assays; conditions: pH 8
T1 sequence (P27296 whole entry): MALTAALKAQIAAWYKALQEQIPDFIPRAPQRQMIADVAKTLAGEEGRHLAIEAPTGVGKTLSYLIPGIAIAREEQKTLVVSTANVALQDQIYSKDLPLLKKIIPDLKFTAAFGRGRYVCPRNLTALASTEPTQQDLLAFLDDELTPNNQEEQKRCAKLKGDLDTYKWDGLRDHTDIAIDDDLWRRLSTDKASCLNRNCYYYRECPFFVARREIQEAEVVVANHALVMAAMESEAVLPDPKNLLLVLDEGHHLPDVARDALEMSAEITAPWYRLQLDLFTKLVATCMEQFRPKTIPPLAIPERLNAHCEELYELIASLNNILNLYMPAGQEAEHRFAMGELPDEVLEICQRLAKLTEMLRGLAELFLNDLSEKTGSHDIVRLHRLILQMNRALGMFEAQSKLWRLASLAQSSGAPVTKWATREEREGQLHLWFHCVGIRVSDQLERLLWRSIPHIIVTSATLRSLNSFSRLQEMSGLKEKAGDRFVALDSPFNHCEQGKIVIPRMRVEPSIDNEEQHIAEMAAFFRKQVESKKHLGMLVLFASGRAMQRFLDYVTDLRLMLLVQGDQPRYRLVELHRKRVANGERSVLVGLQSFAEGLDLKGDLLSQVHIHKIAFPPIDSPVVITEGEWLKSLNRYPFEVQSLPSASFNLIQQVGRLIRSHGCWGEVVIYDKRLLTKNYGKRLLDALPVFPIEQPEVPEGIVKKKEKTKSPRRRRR
Description: (§1) Standard helicase reaction mixtures (20μl) containing 5 fmol of the indicated TP-G4 or OX-1-G2' DNA substrates or forked duplex DNA substrate (0.25 nM DNA substrate concentration), 1mM ATP, and the indicated concentrations of the specified helicase were as previously described for FANCJ [Wu et al., Mol. Cell. Biol., 28:4116-4128] and DDX11 [Wu et al., J. Biol. Chem., 287:1007-1021]. Helicase reactions for XPD and DinG were performed in buffer that contained 20mM Tris-HCl (pH 8.0), 10mM KCl, 1mM dithiothreitol, 5mM MgCl2, and 100 μg/ml BSA. Reactions were performed at 37 °C for 15 min in the presence of 1 mM ATP, the DNA substrates mentioned above, and the indicated helicase protein concentrations. Forthe unimolecular Poly(A) Zic1-G4 DNA substrate, helicase reactions were performed in reaction buffer containing a 20-fold excess of peptide-nucleic acid complementary oligonucleotide [Giri et al., Nucleic Acids Res., 39:7161-7178]. G4 helicase reactions were terminated by th

[2] = molecular target: T2, Fanconi anemia group J protein (Homo sapiens, UniProt Q9BX63); assay: Helicase Assays; conditions: pH 8
T2 sequence (Q9BX63 whole entry): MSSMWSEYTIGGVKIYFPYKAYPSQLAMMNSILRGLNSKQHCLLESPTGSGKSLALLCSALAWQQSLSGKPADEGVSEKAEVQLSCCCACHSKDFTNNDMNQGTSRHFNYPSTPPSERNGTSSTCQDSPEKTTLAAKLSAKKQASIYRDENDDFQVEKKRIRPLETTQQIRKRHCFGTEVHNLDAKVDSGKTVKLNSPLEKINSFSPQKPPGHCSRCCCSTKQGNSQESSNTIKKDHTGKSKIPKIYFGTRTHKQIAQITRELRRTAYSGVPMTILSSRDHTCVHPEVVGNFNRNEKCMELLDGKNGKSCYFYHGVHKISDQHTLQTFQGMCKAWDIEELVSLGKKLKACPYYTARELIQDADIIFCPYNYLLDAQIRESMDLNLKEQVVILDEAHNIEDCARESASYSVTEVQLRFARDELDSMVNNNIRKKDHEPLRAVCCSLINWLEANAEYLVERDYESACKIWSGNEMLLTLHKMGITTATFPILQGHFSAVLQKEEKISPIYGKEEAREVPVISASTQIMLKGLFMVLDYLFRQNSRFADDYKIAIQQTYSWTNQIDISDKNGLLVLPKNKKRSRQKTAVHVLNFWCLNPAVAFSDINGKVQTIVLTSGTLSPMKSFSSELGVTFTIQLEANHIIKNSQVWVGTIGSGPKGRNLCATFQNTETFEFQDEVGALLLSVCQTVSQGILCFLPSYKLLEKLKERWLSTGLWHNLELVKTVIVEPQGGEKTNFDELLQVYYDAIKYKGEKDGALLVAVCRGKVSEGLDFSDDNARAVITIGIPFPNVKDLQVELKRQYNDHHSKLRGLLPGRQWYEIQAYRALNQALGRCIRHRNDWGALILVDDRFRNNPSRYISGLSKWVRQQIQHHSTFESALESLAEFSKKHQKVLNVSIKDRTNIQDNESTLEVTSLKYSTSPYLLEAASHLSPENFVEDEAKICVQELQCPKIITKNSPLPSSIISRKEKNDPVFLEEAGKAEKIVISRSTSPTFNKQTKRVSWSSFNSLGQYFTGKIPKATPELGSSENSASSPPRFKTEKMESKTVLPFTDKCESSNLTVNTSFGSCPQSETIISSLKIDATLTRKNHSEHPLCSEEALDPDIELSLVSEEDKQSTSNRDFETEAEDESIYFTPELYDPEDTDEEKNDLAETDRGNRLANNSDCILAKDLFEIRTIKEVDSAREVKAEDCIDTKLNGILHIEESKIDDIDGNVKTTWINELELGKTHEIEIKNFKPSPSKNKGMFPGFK
Description: as §1

Row | SMILES | IC50 [1] | IC50 [2]
1 | C[n+]1ccc(-c2c3nc(c(-c4cc[n+](C)cc4)c4ccc([nH]4)c(-c4cc[n+](C)cc4)c4nc(c(-c5cc[n+](C)cc5)c5ccc2[nH]5)C=C4)C=C3)cc1 | 1100 nM and 1200 nM | 2300 nM and 2900 nM and 4900 nM
2 | C[n+]1cc(NC(=O)c2ccc3ccc4ccc(C(=O)Nc5cc6ccccc6[n+](C)c5)nc4c3n2)cc2ccccc21 | 50 nM and 130 nM | –
3 | C[n+]1cccc2cc(NC(=O)c3ccc4ccc5ccc(C(=O)Nc6ccc7c(ccc[n+]7C)c6)nc5c4n3)ccc21 [Phen-DC6] | 60 nM and 55 nM | –
4 | Cc1oc2nc1-c1nc(co1)-c1nc(co1)-c1nc(co1)-c1nc(co1)-c1nc(co1)C1=NC(CS1)c1nc-2c(C)o1 (stereo unspecified) [Telomestatin (TMS)] | 1.5 nM and 1 nM | 2.2 nM and 1.9 nM and 2 nM
